Reference: patent US20100291225A1, “Stabilized Sustained Release Composition of Bupropion Hydrochloride and Process For Preparing the Same” (priority 2008, published 2010)

Conditions: in vivo, po, 150 mg
Protocol: This example describes an in-vivo study, which measured plasma concentrations of bupropion achieved after oral administration of reference Wellbutrin® SR tablet and test bupropion hydrochloride sustained release tablets of example 1. The in-vivo study was carried out on 12+2 standby healthy adult subjects under fasting conditions. Plasma bupropion was determined over a 120 hour period, after single oral administration of the respective formulations. Each subject was administered each of the two formulations in cross over design separated by a washout period of 14 days between administrations of the two formulations. Plasma levels were measured at predetermined times utilizing a validated assay method employing LC-MS/MS instrumentation. Plasma pharmacokinetic parameters were evaluated using commercially available software WinNonlin version 5.0.1 or higher. The statistical analysis was performed using SAS® package (SAS® Institute Inc., USA version 9.1 or higher). Values derived at each time point and to determine the area under the curve (AUC) and maximum concentration (Cmax) afforded by Wellbutrin®SR and the test formulation.

`CC(NC(C)(C)C)C(=O)c1cccc(Cl)c1` (stereo not drawn) [Wellbutrin ®SR] gave an AUC0-t of 894.88 ngh/ml, an AUC0-α of 951.251 ngh/ml and a Cmax of 111.178 ng/mL.
